Measurements: patent US20080220056A1, “Treatment for liver disease” (UNIVERSITY OF SOUTHAMPTON, priority 2002, published 2008)

How the values were obtained:
Type in all cases: cell-based
[1] = system: rat hepatic stellate cells; experiment: Morphology and detachment of culture-activated rat hepatic stellate cells (light microscopy)
Description: Rat hepatic stellate cells (HSCs) were isolated by pronase/collagenase perfusion and purified by isopycnic density centrifugation in Opti-prep™ (Nycomed, Amersham, England) and elutriation essentially as previously described (Bahr et al., Hepatology (1999) 29:839-848). Human hepatic stellate cells were isolated from discarded resected liver via a similar protocol (Trim et al., J. Biol. Chem., (2000) 275:6657-6663). The use of human liver tissue for scientific investigation was approved by the UK South and West Local Research Ethics Committee and was subject to patient consent.
It has been shown recently that liver myofibroblasts may contribute to liver fibrogenesis and that liver myofibroblasts may have the potential to contaminate passaged hepatic stellate cell cultures (Knittel et al., Gastronenterology, (1999) 117:1205-1221). In this study, only primary cultures of hepatic stellate cells were used, which were desmin and glial fibrillary acid protein positive (markers shown to be expressed in hepatic stellate cells, but not liver myofibroblasts—Knittel et al., supra).
Cells were treated with gliotoxin dissolved in DMSO vehicle (added to medium from a 2000-fold molar concentrated stock). Control cells received DMSO vehicle only (i.e., 0.05% vol/vol). All other additions to culture medium were made from concentrated stocks dissolved in DMSO or by direct addition to culture medium. Protein contents of wells were determined using the Lowry assay (Lowry et al., J. Biol. Chem., (1951)193: 265-275).
Culture activated rat (14 day) and human (24 day) hepatic stellate cells were treated with DMSO solvent control or 1.5 μMol/L gliotoxin. […] Hepatic stellate cells changed from a flattened fibroblastic phenotype with distinct cell-cell interfaces to a substratum detached, rounded, and blebbed morphology.

[2] = system: rat hepatic stellate cells; experiment: Low molecular weight DNA fragmentation (nucleosomal ladder) in rat hepatic stellate cells; settings: rat HSC; 1.5 μmol/L; up to four hours
Experimental: (§1) Hepatic stellate cells cultured in 35-mm diameter dishes (Greiner) were harvested, pelleted by centrifugation and DNA fragmentation determined as outlined elsewhere (Elsharkawy et al., Hepatology (1999) 30:761-769). Propidium Iodide Flow-Activated Cell Sorting Analysis Detached cells were pelleted by centrifugation, washed in PBS, and resuspended in HYPO buffer (0.1% wt/vol) Na3Citrate and 0.1% (wt/vol) Triton™ X-100 containing […] propidium iodide and incubated for 1 hour. The cells were then analyzed by fluorescence-activated cell sorter (FACS) with a Becton Dickinson (San Jose, Calif.) FACScan instrument using a 488 nm excitation wavelength with a band pass filter set at 530 nm. Attached cells were scraped in HYPO buffer after washing cells with PBS.
The effect of gliotoxin on the cleavage of DNA to a nucleosomal ladder was examined because this phenomenon is characteristic of apoptosis. Culture activated (14-day) rat hepatic stellate cells in six well plates were treated with either 0.05% (vol/vol) DMSO for four hours or 1.5 μmol/L gliotoxin for zero hours, half an hour, one hour, two hours or four hours. At each time point, both detached and attached cells were harvested together and low molecular weight DNA (20,000 g supernatant) fragmentation determined as outlined in the materials and methods section. At least three separate experiments were performed. 1 kilobase DNA ladder (Promega) was used as a molecular weight marker.
The effect of various compounds on DNA laddering was then determined. Culture-activated (14-day) rat hepatic stellate cells in six-well plates were treated with:
After fours hours of treatment, DNA fragmentation was determined.
Culture activated (14 day) rat hepatic stellate cells in six well plates were treated with: • (a) 0.05% (vol/vol) DMSO; • (b) 1.5 μmol/L gliotoxin; • (c) 1.5 μmol/L gliotoxin with 100 μmol/L tamoxifen; • (d) 1.5 μmol/L gliotoxin with […] actinomycin d; • (e) 1.5 μmol/L gliotoxin with 10 μmol/L cycloheximide; • (f) 1.5 μmol/L gliotoxin with 10 μmol/L cyclosporin; • (g) 1.5 μmol/L gliotoxin with […] m-iodobenzylguanidine; • (h) 1.5 μmol/L gliotoxin with 50 μmol/L quin-2-am; • (i) 50 μmol/L guin-2-am alone; • (j) 250 μmol/L m-iodobenzylguanidine; • (k) 10 μmol/L cyclosporin; • (l) 10 μmol/L cycloheximide; • (m) 1 μg/ml actinomycin d; or • (n) 100 μmol/L tamoxifen.
After four hours of treatment, DNA fragmentation was determined as outlined in Materials and Methods.

[3] = system: rat hepatic stellate cells; experiment: Propidium iodide FACS analysis of DNA strand breaks in rat hepatic stellate cells; settings: 1.5 μmol/L gliotoxin, two hours
Experimental: as §1
To characterize the extent and significance of apoptosis in response to gliotoxin, rat hepatic stellate cell DNA strand breaks were assessed by FACS analysis of propidium iodide stained cells. Culture-activated (14-day) rat hepatic stellate cells were treated with 0.05% (vol/vol) DMSO vehicle control or with 1.5 lμmol/L gliotoxin for two hours, harvested, and stained with propidium iodide as outlined in the materials and methods section.

[4] = system: Fas and Fas ligand in human hepatic stellate cells; experiment: Enzyme-linked immunosorbent assay for Fas and Fas ligand; settings: TIMP-1 142.5 ng/ml, 18 hours, serum deprivation, versus BSA alone
Experimental: Human hepatic stellate cells were grown to confluence and exposed to BSA with and without TIMP-1. Cells and supernatants were harvested, and protein extracts were assayed for Fas and Fas ligand by commercial enzyme-linked immunosorbent assay following the manufacturer's instructions (Calbiochem). The quantities of Fas and Fas ligand were normalized to cell number by DNA quantification using the PicoGreen technique.
Experiments were next performed to determine whether TIMP-1 regulated Fas ligand cleavage in human hepatic stellate cells. Hepatic stellate cells were incubated for 18 hours in conditions of absolute serum deprivation with BSA or BSA with TIMP-1 (142.5 ng/ml). The cells were extracted, and supernatants were collected. After normalizing for cell number (by DNA concentration using the PicoGreen technique), these extracts were analyzed by enzyme-linked immunosorbent assay for Fas and Fas ligand as described under Materials and Methods. […] Supernatant Fas and Fas ligand protein levels were undetectable in all experimental conditions (data not shown, n 3).

[5] = system: rat hepatic stellate cells; experiment: Hepatic stellate cell proliferation (tritiated thymidine); settings: TIMP-1 1-100 ng/ml, 24 hour incubation, versus BSA carrier
Experimental: Hepatic stellate cells were cultured in 24-well tissue culture plates. These were washed with serum-free medium for 24 h, and then the cells were exposed to TIMP-1 at a concentration range of 1-100 ng/ml for 24 h and then pulsed with tritiated thymidine (0.5 μCi/well) for 18 hours before scintillation counting as previously described (Boulton et al., Clin. Sci., (1995) 88:119-130).

| Compound | detachment from culture dish substratum ([1]; 1.5 μMol/L gliotoxin, within four hours) | morphologic alterations ([1]; culture activated (14 day) rat HSC, 1.5 μmol/L) | cleavage of DNA to a nucleosomal ladder [2] | propidium iodide nuclei fluorescence (DNA cleavage) [3] | cellular Fas or Fas ligand protein levels [4] | proliferation of rat hepatic stellate cells [5] |
| --- | --- | --- | --- | --- | --- | --- |
| CN1C(=O)[C@]23CC4=CC=C[C@H](O)[C@H]4N2C(=O)[C@@]1(CO)SS3 [gliotoxin] | a majority of the hepatic stellate cells had detached | striking morphologic alterations within one hour | time dependent increase in DNA cleavage to a nucleosomal ladder | broad low level of fluorescence |  |  |
| TIMP-1: recombinant tissue inhibitor of matrix metalloproteases 1 (Biogenesis) |  |  |  |  | had no effect on cellular Fas or Fas ligand protein levels | had no effect on proliferation |
